The source of these data is patent publication US10774084B2, “Adenine derivatives and their use as UV-photoprotective agents” (UNIVERZITA PALACKEHO V OLOMOUCI, priority 2015, dated 2020).

Assay [1] concerns Triticum aestivum cv. Hereward leaf segments. The assay is described as follows: Senescence bioassay on detached wheat leaf segments (chlorophyll retention). On the procedure:
Seeds of winter wheat, Triticum aestivum cv. Hereward, were washed under running water for 24 hours and then sown on vermiculite soaked with Knop's solution. They were placed in the growth chamber at 25° C. with a 16/8 h light period at […]. After 7 days, the first leaf was fully developed and the second leaf had started to grow. A tip section of the first leaf, approximately 35 mm long, was removed from 5 seedlings and trimmed slightly to a combined weight of 100 mg. The basal ends of the five leaf tips were placed in the wells of a microtiter polystyrene plate containing 150 μL of the tested derivative solution each. The entire plate was inserted into a plastic box lined with paper tissues soaked in distilled water to prevent leaf sections from drying out. After 96 h incubation in the dark at 25° C., the leaves were removed and chlorophyll extracted by heating at 80° C. for 10 min in 5 mL of 80% ethanol (v/v). The sample volume was then restored to 5 mL by the addition of 80% ethanol (v/v). The absorbance of the extract was recorded at 665 nm. In addition, chlorophyll extracts from fresh leaves and leaf tips incubated in deionised water were measured. The results are means of five replicates and the entire test was repeated twice. […] The compounds to be tested were dissolved in dimethylsulfoxide (DMSO) and the solution brought up to 10^−3 M with distilled water. […] The activity obtained for 10^−4 M of BAP was postulated as 100%. Kinetin was used as the second standard. Newly prepared compounds generally exceeded the efficiency of standard (BAP) by 10% of its activity (Tab. 5).

The next assay has as its system HaCaT. Put plainly: Calcein AM cytotoxicity assay. Format: cell-based. The following applies: Homo sapiens, 72 hrs. The source says: (§1) One of the parameters used as the base for cytotoxic analysis is metabolic activity of viable cells. Microtiter assay, which uses the Calcein AM, is now widely used to quantify cell proliferation and cytotoxicity. The quantity of […] Calcein AM corresponds to the number of viable cells in culture. The cell lines of breast cancer (MCF-7), human erythromleukemia (K562), BJ human fibroblast cells (BJ) and human keratinocyte cell line (HaCaT) were used for routine screening of cytotoxicity of the compounds. The cells were maintened in Nunc/Corning 80 cm^2 plastic bottles and grown in media for cell culture (DMEM containing 5 g/l of glucose, 2 mM of glutamin, 100 U/ml of penicilin, 100 μg/ml of streptomycin, 10% of fetal bovine serum and sodium hydrogencarbonate). Cell suspensions were diluted according to cell types and according to expected final cell density (10^4 of cells per well according to characteristics of cell growth), pippeted 80 μl of cell suspension on 96-well microtiter plates. Innoculates were stabilized by 24 hrs preincubation at 37° C. in CO2. Particular concentrations of tested compounds were added in time zero as 20 μl aliquotto wells of microtiter plates. Usually, the compounds were diluted into six concentrations in four-fold dilution series. In routine testing, the highest well concentration was 166.7 μM, of change dependent on the substance. All drug concentrations were examined in duplicates. The incubation of cells with tested derivatives lasted 72 hrs at 37° C., 100% humidity and in the atmosphere of CO2. At the end of the incubation period, the cells were tested and analysed according to the addition of Calcein AM (Molecular probes) solution and the incubation lasted for next 1 hour. Fluorescence (FD) was measured using Labsystem FIA reader Fluorskan Ascent (Microsystems). The survival of tumor cells (The tumor cell survival-TCS) was counted according to equation: […](FDwell with derivative/FDcontrol well)×100%. The value of GI50, that is equal to the concentration of compound at which 50% of tumour cells are terminated. To evaluate the antitumor activity was tested toxicity of new derivatives on panel of cell lines of different histogenetic and species origin (Tab. 6, G150 concentration given in μM). […] Effective derivatives killed tumor cells in concentrations close to 0.1 to 50. None of the newly prepared compounds only reached the value.

In a further assay the test system is MCF-7. Put plainly: Calcein AM cytotoxicity assay. It is filed as cell-based. The following applies: Homo sapiens, MCF7, 72 hrs.
Text: as §1

Another assay relates to K562. Put plainly: Calcein AM cytotoxicity assay. It is filed as cell-based. The following applies: Homo sapiens, 72 hrs.
Text: as §1

Assay [2] has as its system BJ human fibroblast cells. The assay is described as follows: Calcein AM cytotoxicity assay. It is filed as cell-based. The settings on record: 72 hrs.
Text: as §1

SMILES strings stand for the structures.

Consider `c1coc(CNc2ncnc3c2ncn3C2CCCO2)c1` (stereo not drawn) [6-furfurylamino-9-(tetrahydrofuran-2-yl)purine], for which, in assay [1] (96 h in the dark), the maximum effective concentration was 10^−4 mol · l^−1. Further, the “activity (%) [10^−4 mol · l^−1 BAP = 100%]” value in assay [1] (at maximum effective concentration) is on record as 114 ± 3%. Further, the GI50 (in the assay with HaCaT; in the assay with MCF-7; in the assay on K562; in assay [2]) was > 100 µM each time.
